Data published in US20140194479A1, “COMPOSITIONS AND METHODS FOR TREATING MOOD DISORDERS” (priority 2011, published 2014).

Columns and labels:
[1] = test system: 5-HT/5-HIAA levels in the forebrain neocortex; details: 300 mg/kg twice per day, within 5 days; Gurevich et al., 2002; cited from earlier work
[2] = test system: histone H3 and H4 proteins in the forebrain neocortex; assay: Western blotting of histone proteins, forebrain neocortex of SFR Balb/c mice; type: in vivo
Description: (§1) Forebrain neocortical tissue was dissected in phosphate-buffered saline supplemented with protease inhibitors and homogenized in 0.5% SDS, protease inhibitor cocktail (Complete Mini, Roche, Germany), 10 mM EDTA, and 10 mM Tris HCl (pH 8.0). Protein concentration was measured using the NanoDrop instrument (Thermo Scientific, Wilmington, Del.).
(§2) For loading controls, an anti-GAPDH antibody was used (Abcam, Cambridge, Mass.; 1:100,000). After incubation with primary antibody, membranes were incubated with a horseradish-peroxidase-conjugated secondary antibody (anti-rabbit IgG-HRP; Sigma, St. Louis, Mo.; dilution: 1:5,000) for 1 hour at room temperature. SuperSignal West Dura (Thermo Scientific, Waltham, Mass.) was used to visualize bound antigen. Optical densities (OD) of histone protein signals were determined using NIH ImageJ software. ODs were normalized to corresponding ODs obtained for GAPDH.

[3] = test system: histone H3 and H4 proteins in the forebrain neocortex; assay: Western blotting of histone proteins, forebrain neocortex of IMS Balb/c mice; type: in vivo
Description: as §1, §2

SFR Balb/c mice [4] = assay: Elevated Plus Maze (EPM), SFR Balb/c mice; type: in vivo; details: for time spent in the open arms of the EPM: SFR Balb/c treated during adolescence (P35 to P60), vs non-treated controls
SFR Balb/c mice [5] = assay: Forced Swim Test (FST), SFR (non-stressed) Balb/c mice; type: in vivo; details: for immobility in the FST: SFR Balb/c treated during adolescence (P35 to P60), vs SFR controls
Description: (§4) For chronic drug treatment, drugs were administered via the drinking water. […] Suberoylanidide hydroxamic acid (SAHA) was dissolved in DMSO and subsequently diluted about 100 fold in water containing 0.2% sucrose. Mice consumed about 200 mg/kg/day of SAHA (Butler et al., 2000) and their controls received drinking water supplemented with the same amount of DMSO and sucrose that SAHA-treated animals received. […] In these experiments, mice received a single intraperitoneal injection of SAHA (100 mg/kg) at P35, followed by SAHA treatment via the drinking water for the next 3 days.
Three days later, mice were tested in a modified version of Forced Swim Test (FST), i.e., a 6 minute exposure on day 1 followed by another 6 minute exposure on day 2.

[6] = test system: histone H3 and H4 proteins in the forebrain neocortex; assay: Western blotting of histone proteins, forebrain neocortex of C57BI/6 mice; type: in vivo; details: C57BI/6 mice at P60, IMS-fluoxetine, OD normalized to GAPDH, mean ± sem
Description: as §1, §2

[7] = test system: aCH4K12 at BDNF promotors; assay: ChIP/real-time PCR, aCH4K12 enrichment at BDNF promotors; type: in vivo, Balb/c mice; details: non-stressed Balb/c treated P35 to P59; FIG. 15B
Description: (§3) Data in (FIG. 15A) are mean±sem of 8 animals per group. Data in (FIG. 15B) and (FIG. 15C) were obtained from ChIP/real-time PCR measures (mean±sem; n=4/group) using antibodies directed against aCH4K12 (FIG. 15B) and Pol II (FIG. 15C). […] Data in (FIG. 15D) are from RT-real-time PCR measures of BDNF mRNA levels (mean±sem, n=5/group). […] All data were compared by ANOVA and significant differences between groups were resolved post hoc using Tukey Kramer multiple comparisons as indicated. In all studies, male and female mice were used.

[8] = test system: RNA Polymerase II (Pol II) at BDNF promotors; assay: ChIP/real-time PCR, Pol II enrichment at BDNF promotors; type: in vivo, Balb/c mice; details: non-stressed Balb/c treated P35 to P59; FIG. 15C
Description: as §3

SFR Balb/c mice [9] = details: adolescent treatment; Bhansali et al., 2007; cited from earlier work
HDAC mRNA = assay: Real-time RT-PCR of HDAC mRNA, forebrain neocortex of IMS Balb/c mice
Description: (§5) Briefly, offspring of first-time mothers were separated from their dam daily for three hours (from 1:00 to 4:00 P.M.) from postnatal age day 2 (P2) until P15. Control animals were standard facility-reared (SFR) pups of first-time mothers. Housing and husbandry conditions were identical for IMS and SFR mice. Pups were weaned at P28 and group housed by sex (five animals randomly selected from at least five different litters). Since this study involved behavioral tests of emotive phenotypes that are sensitive to differences in the estrus cycle of females, all studies disclosed below were conducted on male mice.
as §4

HDAC3 [10] = biological target: T1, HDAC3 (Homo sapiens, UniProt O15379); details: read-out: IC50 HDAC 3; cited from earlier work
Target sequence in this assay (O15379 whole entry, species assumed): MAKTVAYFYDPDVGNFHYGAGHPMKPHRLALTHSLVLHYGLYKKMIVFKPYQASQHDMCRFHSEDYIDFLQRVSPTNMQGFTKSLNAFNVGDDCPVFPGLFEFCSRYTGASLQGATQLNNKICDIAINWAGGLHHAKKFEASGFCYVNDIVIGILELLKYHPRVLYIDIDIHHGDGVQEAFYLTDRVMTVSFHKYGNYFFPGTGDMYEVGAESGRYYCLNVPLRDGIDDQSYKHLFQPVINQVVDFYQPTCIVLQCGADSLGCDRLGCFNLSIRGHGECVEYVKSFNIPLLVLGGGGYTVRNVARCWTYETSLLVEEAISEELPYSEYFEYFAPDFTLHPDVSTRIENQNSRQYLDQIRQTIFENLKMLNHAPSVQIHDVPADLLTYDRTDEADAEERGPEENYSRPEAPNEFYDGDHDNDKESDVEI
Target sequence in this assay (Q9Y618 395-489 partner limits assumed, species assumed): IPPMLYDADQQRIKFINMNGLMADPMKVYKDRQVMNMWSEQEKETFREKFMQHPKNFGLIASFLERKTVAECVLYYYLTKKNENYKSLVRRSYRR

HDAC1 = HDAC1 (Homo sapiens, UniProt Q13547); details: at concentration below 10^−4M; Ito et al., 2002; cited from earlier work
HDAC1, sequence (Q13547 whole entry, species assumed): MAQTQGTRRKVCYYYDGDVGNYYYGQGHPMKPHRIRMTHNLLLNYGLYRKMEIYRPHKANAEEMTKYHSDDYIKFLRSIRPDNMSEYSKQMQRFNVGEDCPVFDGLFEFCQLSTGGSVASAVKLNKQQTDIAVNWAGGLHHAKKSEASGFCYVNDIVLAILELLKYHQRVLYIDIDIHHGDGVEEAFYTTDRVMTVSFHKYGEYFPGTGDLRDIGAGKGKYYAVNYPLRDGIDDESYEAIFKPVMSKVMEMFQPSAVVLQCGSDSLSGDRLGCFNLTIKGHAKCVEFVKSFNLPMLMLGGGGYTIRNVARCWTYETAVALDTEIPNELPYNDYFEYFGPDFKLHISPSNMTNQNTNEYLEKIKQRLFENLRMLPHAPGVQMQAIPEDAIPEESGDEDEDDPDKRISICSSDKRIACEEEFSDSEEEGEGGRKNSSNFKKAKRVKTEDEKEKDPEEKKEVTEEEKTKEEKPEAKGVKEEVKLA

HDAC3 [11] = biological target: T1, HDAC3; details: at concentration below 10^−4M; Ito et al., 2002; cited from earlier work
Target sequence in this assay (O15379 whole entry, species assumed): as the sequence (O15379 whole entry, species assumed) above

adenosine receptors = details: at concentration below 10^−4M; Ito et al., 2002; cited from earlier work
phosphodiesterases = details: at concentration below 10^−4M; Ito et al., 2002; cited from earlier work
IMS Balb/c mice [12] = assay: Forced Swim Test (FST), IMS Balb/c mice
Description: as §5, §4
Their times spent in open arms and the number of arm crossings was recorded. […]

IMS Balb/c mice [13] = assay: Elevated Plus Maze (EPM), IMS Balb/c mice
Description: as §5, §4
Their times spent in open arms and the number of arm crossings was recorded. Three days later, mice were tested in a modified version of Forced Swim Test (FST), i.e., a 6 minute exposure on day 1 followed by another 6 minute exposure on day 2.

[14] = Plasma concentration of theophylline under drinking water treatment; details: over 24 hours of theophylline-supplemented (10^−4M) drinking water consumption
Description: as §4

[15] = test system: extracellular 5-HT levels; details: McEwen et al., 2010, Mennini et al., 1987; cited from earlier work
[16] = SFR Balb/c, adolescent treatment
[17] = IMS Balb/c treated between P21 and P35
[18] = IMS Balb/c, adolescent fluoxetine vs non-treated IMS
[19] = IMS Balb/c, adolescent treatment, compared to non-treated IMS Balb/c mice
[20] = IMS Balb/c, fluoxetine during adolescence, OD normalized to GAPDH, mean ± sem
[21] = IMS Balb/c, treatment P35 to P60, vs non-treated IMS
[22] = SFR Balb/c, fluoxetine alone or with SAHA, OD normalized to GAPDH, mean ± sem
[23] = IMS-fluoxetine Balb/c at P60, mean±sem

## N[C@@H](Cc1ccc(Cl)cc1)C(=O)O (racemic) [pCPA, para-chlorophenylalanine]
[1]
  reduction of 5-HT/5-HIAA levels in the forebrain neocortex: about 80%

## Nc1ccccc1NC(=O)c1ccc(CNC(=O)OCc2cccnc2)cc1 [MS-275]
[2]; [16]
  effect on acetylated H4K5 expression: increased
  effect on acetylated H4K8 expression: increased
  effect on acetylated H4K12 expression: increased

## O=C(CCCCCCC(=O)Nc1ccccc1)NO [SAHA, suberoylanilide hydroxamic acid]
[3]; [17]
  effect on development of the adult epigenetic phenotype: did not prevent
  effect on the decreased acetylation of histone H4 proteins: prevented
SFR Balb/c mice [4]; SFR Balb/c treated during adolescence
  percentage of open arm entries in the EPM: lowest percentage
SFR Balb/c mice [4]
  time spent in the open arms of the EPM: significantly less time
SFR Balb/c mice [5]
  immobility in the FST: significantly increased

## CNCCC(Oc1ccc(C(F)(F)F)cc1)c1ccccc1 (centres unmarked) [fluoxetine]
[3]; [18]
  increase in acetylated H3K9 protein: 55%
  increase in acetylated H4K12 protein: 230%
  increase in total histone H3 protein expression: 60%
  increase in total histone H4 protein expression: 13%
[3]; [19]
  H3K4me3: Increased
  acH3K9: Increased
  acH4K5: Increased
  acH4K12: Increased
  acK4K8: Increased
[3]; [20]
  H3K4me3 expression: 0.94 ± 0.07
  H3K9me2 expression: 0.93 ± 0.03
  H3 expression: 1.31 ± 0.03
  acH3K9 expression: 1.21 ± 0.02
  acH4K5 expression: 0.94 ± 0.02
  acH4K8 expression: 1.51 ± 0.06
  acH4K12 expression: 1.16 ± 0.04
  acH4K16 expression: 1.04 ± 0.04
[3]; IMS Balb/c, fluoxetine during adolescence, OD on Western blots normalized to GAPDH, mean ± sem, n = 5
  H4 expression: 0.97 ± 0.05
[3]; [21]
  effect on acetylated H4K12 protein expression: significantly increased
  effect on acetylated histone H3K9 expression: significantly increased
  effect on acetylated histone H4K8 expression: significantly increased
  effect on dimethylated histone H3 protein expression: did not change
  effect on total H3 protein expression: increased
  effect on total H4 protein expression: increased
  effect on trimethylated histone H3 protein expression: increased
[2]; [22]
  H3K4me3 expression: 1.12 ± 0.02
  H3K9me2 expression: 1.08 ± 0.04
  H3 expression: 0.96 ± 0.01
  acH3K9 expression: 0.86 ± 0.03
  acH4K5 expression: 0.45 ± 0.06
  acH4K8 expression: 0.86 ± 0.06
  acH4K12 expression: 0.80 ± 0.03
  acH4K16 expression: 0.70 ± 0.06
[2]; SFR Balb/c, fluoxetine alone or with SAHA, OD on Western blots normalized to GAPDH, mean ± sem, n = 5
  H4 expression: 1.10 ± 0.04
[2]; SFR mice, adolescent fluoxetine 16 mg/kg/day vs vehicle, FIG. 7
  effect on histone H3/H4 expression: does not alter
[6]
  H3K4me3 expression: 0.94 ± 0.02
  H3K9me2 expression: 0.89 ± 0.03
  H3 expression: 0.98 ± 0.02
  acH3K9 expression: 1.00 ± 0.03
[6]; n = 5
  H4 expression: 1.00 ± 0.03
SFR Balb/c mice [4]
  time spent in the open arms of the EPM: did not differ
SFR Balb/c mice [5]
  immobility in the FST: did not differ
SFR Balb/c mice [5]; non-stressed Balb/c treated P35 to P59, vs vehicle and fluoxetine-only, FIG. 15A
  immobility in the forced swim test (FST), antidepressant-like effects: not achieved
[7]
  enrichment of aCH4K12 at BDNF promotor P1: higher enrichment
  enrichment of aCH4K12 at BDNF promotor P3: higher enrichment
[8]
  increase of density of Pol II associated with the P3 promotor of the BDNF gene: not in fluoxetine-only treated mice
SFR Balb/c mice [9]
  FST behavior of SFR controls: had no effect
HDAC mRNA; IMS Balb/c, treatment P35 to P60, nine HDAC mRNAs
  effect on HDAC mRNA expression levels: did not alter
HDAC mRNA; [23]
  HDAC1 mRNA expression, real-time PCR ½^ΔCt: 0.011±0.0006
  HDAC2 mRNA expression, real-time PCR ½^ΔCt: 0.0016±0.0001
  HDAC3 mRNA expression, real-time PCR ½^ΔCt: 0.055±0.004
  HDAC4 mRNA expression, real-time PCR ½^ΔCt: 0.011±0.002
  HDAC5 mRNA expression, real-time PCR ½^ΔCt: 0.044±0.006
  HDAC7 mRNA expression, real-time PCR ½^ΔCt: 0.011±0.001
  HDAC8 mRNA expression, real-time PCR ½^ΔCt: 0.0035±0.0004
  HDAC9 mRNA expression, real-time PCR ½^ΔCt: 0.001±0.0002
  HDAC10 mRNA expression, real-time PCR ½^ΔCt: 0.0074±0.0006

## CCCC(=O)[O-].[Na+] [sodium butyrate]
HDAC3 [10]
  IC50: 700 µM

## Cn1c(=O)c2[nH]cnc2n(C)c1=O [theophylline]
SFR Balb/c mice [4]
  time spent in the open arms of the EPM: did not differ
SFR Balb/c mice [5]
  immobility in the FST: did not differ
HDAC1
  activation of HDAC1: activates
HDAC3 [11]
  activation of HDAC3: activates
Adenosine receptors
  antagonist effect on adenosine receptors: no antagonist effect
phosphodiesterases
  inhibition of phosphodiesterases: exerts no
IMS Balb/c mice [12]; IMS Balb/c treated P35 to P60, greater immobility of IMS mice
  total immobility time in the FST: significantly potentiated
IMS Balb/c mice [12]; SFR controls, IMS and treated IMS mice
  number of passive episodes in the FST: no significant differences
IMS Balb/c mice [13]; IMS Balb/c treated P35 to P60, vs non-treated IMS mice
  total time spent in open arms of the EPM: significantly less time
IMS Balb/c mice [13]; SFR controls, IMS and treated IMS Balb/c
  total number of arm crossings in the EPM: no significant difference
IMS Balb/c mice [13]; treated IMS Balb/c compared with SFR controls
  percentages of crossings into open arms: did not reach statistical significance
[14]
  plasma concentrations of theophylline: below 10^−4 M

## CN1c2ccccc2C(NCCCCCCC(=O)O)c2ccc(Cl)cc2S1(=O)=O (centres unmarked) [tianeptine]
[15]
  extracellular 5-HT levels: without marked changes
